Converted amounts (≈) assume the structure as drawn.
Columns and labels:
[1] = Brincidofovir equilibrium solubility in formulation vehicles; assay type: physicochemical
Method: The recovery of brincidofovir in the sample supernatant was determined at different time points to establish when the solubility equilibrium was reached. Two samples of vehicle #57, were saturated with brincidofovir. […] Consequently, the pH had to be brought up close to the target pH before more brincidofovir was added.

[2] = IV BCV single ascending dose study in healthy subjects: safety; assay type: in vivo, human
Method: Plasma PK samples were collected over 7 days and assayed by HPLC-MS. Plasma BCV PK parameters were determined by non-compartmental analysis and dose proportionality was assessed. Safety assessments were collected over 14 days.

[3] = Infusion vehicle (5% dextrose) compatibility; assay type: physicochemical; conditions: ambient
Method: A brincidofovir formulation comprising 10 mg/mL brincidofovir, 200 mM sodium phosphate, and 69 mM dextrose (pH=8.0) was diluted with the testing infusion vehicle (5% dextrose solution) to yield c(BCV)=0.5 and 1.0 mg/mL solutions. The diluted solutions were stored at ambient conditions, and samples were collected at initially at the beginning of the experiment, and after 2 h, 8 h, and 24 h and evaluated for appearance, pH, and recovery of c(BCV) (via HPLC). […] Detailed results of the study are summarized below (Table 18).
The Formulation 3a was diluted with the infusion vehicle (5% dextrose) solution to yield c(BCV)=0.5 mg/mL and 1.0 mg/mL solutions. The appearance, pH, and brincidofovir recovery (determined via HPLC) were evaluated at the time of preparing the test solution (to), and after 2 h (t2h), 8 h (t8h), and 24 h (t24h)

[4] = Cohort 1, BCV 10 mg 2 h infusion, n = 6
[5] = Cohort 2, BCV 25 mg 2 h infusion, n = 6
[6] = Cohort 3, BCV 50 mg 2 h infusion, n = 9
[7] = Cohort 4, BCV 50 mg 4 h infusion, n = 9
[8] = c(BCV) 0.5 mg/mL in 5% dextrose, 0 h
[9] = c(BCV) 0.5 mg/mL in 5% dextrose, 2 h
[10] = c(BCV) 0.5 mg/mL in 5% dextrose, 8 h
[11] = c(BCV) 0.5 mg/mL in 5% dextrose, 24 h
[12] = c(BCV) 1.0 mg/mL in 5% dextrose, 0 h
[13] = c(BCV) 1.0 mg/mL in 5% dextrose, 2 h
[14] = c(BCV) 1.0 mg/mL in 5% dextrose, 8 h
[15] = c(BCV) 1.0 mg/mL in 5% dextrose, 24 h

Q: Which results are given for `CCCCCCCCCCCCCCCCOCCCOP(=O)(O)CO[C@H](CO)Cn1ccc(N)nc1=O` [Brincidofovir]?
A: solubility thermodynamic ([1]; pH 6.9, thermodynamic from solid): ~25 mg/mL (≈ 44.5 mM); solubility thermodynamic ([1]; pH 8, thermodynamic from solid): > 270 mg/mL; Drug-Related AEs: Decreased appetite (number of subjects) [2, 4]: 0; Drug-Related AEs: Diarrhea (number of subjects) [2, 4]: 0; Drug-Related AEs: Elevated liver transaminases (number of subjects) [2, 4]: 0; Drug-Related AEs: Headache (number of subjects) [2, 4]: 0; Drug-Related AEs: Nausea (number of subjects) [2, 4]: 0; Drug-Related AEs: Pain, phlebitis at infusion site (number of subjects) [2, 4]: 0; Grade 3 or 4 Drug-Related AEs: Decreased appetite (number of subjects) [2, 4]: 0; Grade 3 or 4 Drug-Related AEs: Diarrhea (number of subjects) [2, 4]: 0; Grade 3 or 4 Drug-Related AEs: Elevated liver transaminases (number of subjects) [2, 4]: 0; Grade 3 or 4 Drug-Related AEs: Headache (number of subjects) [2, 4]: 0; Grade 3 or 4 Drug-Related AEs: Nausea (number of subjects) [2, 4]: 0; Grade 3 or 4 Drug-Related AEs: Pain, phlebitis at infusion site (number of subjects) [2, 4]: 0; Drug-Related AEs: Decreased appetite (number of subjects) [2, 5]: 0; Drug-Related AEs: Diarrhea (number of subjects) [2, 5]: 0; Drug-Related AEs: Elevated liver transaminases (number of subjects) [2, 5]: 0; Drug-Related AEs: Headache (number of subjects) [2, 5]: 0; Drug-Related AEs: Nausea (number of subjects) [2, 5]: 0; Drug-Related AEs: Pain, phlebitis at infusion site (number of subjects) [2, 5]: 0; Grade 3 or 4 Drug-Related AEs: Decreased appetite (number of subjects) [2, 5]: 0; Grade 3 or 4 Drug-Related AEs: Diarrhea (number of subjects) [2, 5]: 0; Grade 3 or 4 Drug-Related AEs: Elevated liver transaminases (number of subjects) [2, 5]: 0; Grade 3 or 4 Drug-Related AEs: Headache (number of subjects) [2, 5]: 0; Grade 3 or 4 Drug-Related AEs: Nausea (number of subjects) [2, 5]: 0; Grade 3 or 4 Drug-Related AEs: Pain, phlebitis at infusion site (number of subjects) [2, 5]: 0; Drug-Related AEs: Decreased appetite (number of subjects) [2, 6]: 0; Drug-Related AEs: Diarrhea (% of subjects) [2, 6]: (11%); Drug-Related AEs: Diarrhea (number of subjects) [2, 6]: 1; Drug-Related AEs: Elevated liver transaminases (number of subjects) [2, 6]: 0; Drug-Related AEs: Headache (% of subjects) [2, 6]: (22%); Drug-Related AEs: Headache (number of subjects) [2, 6]: 2; Drug-Related AEs: Nausea (number of subjects) [2, 6]: 0; Drug-Related AEs: Pain, phlebitis at infusion site (% of subjects) [2, 6]: (11%); Drug-Related AEs: Pain, phlebitis at infusion site (number of subjects) [2, 6]: 1; Grade 3 or 4 Drug-Related AEs: Decreased appetite (number of subjects) [2, 6]: 0; Grade 3 or 4 Drug-Related AEs: Diarrhea (number of subjects) [2, 6]: 0; Grade 3 or 4 Drug-Related AEs: Elevated liver transaminases (number of subjects) [2, 6]: 0; Grade 3 or 4 Drug-Related AEs: Headache (number of subjects) [2, 6]: 0; Grade 3 or 4 Drug-Related AEs: Nausea (number of subjects) [2, 6]: 0; Grade 3 or 4 Drug-Related AEs: Pain, phlebitis at infusion site (number of subjects) [2, 6]: 0; Drug-Related AEs: Decreased appetite (% of subjects) [2, 7]: (11%); Drug-Related AEs: Decreased appetite (number of subjects) [2, 7]: 1; Drug-Related AEs: Diarrhea (% of subjects) [2, 7]: (33%); Drug-Related AEs: Diarrhea (number of subjects) [2, 7]: 3; Drug-Related AEs: Elevated liver transaminases (% of subjects) [2, 7]: (11%); Drug-Related AEs: Elevated liver transaminases (number of subjects) [2, 7]: 1; Drug-Related AEs: Headache (% of subjects) [2, 7]: (22%); Drug-Related AEs: Headache (number of subjects) [2, 7]: 2; Drug-Related AEs: Nausea (% of subjects) [2, 7]: (22%); Drug-Related AEs: Nausea (number of subjects) [2, 7]: 2; Drug-Related AEs: Pain, phlebitis at infusion site (number of subjects) [2, 7]: 0; Grade 3 or 4 Drug-Related AEs: Decreased appetite (number of subjects) [2, 7]: 0; Grade 3 or 4 Drug-Related AEs: Diarrhea (number of subjects) [2, 7]: 0; Grade 3 or 4 Drug-Related AEs: Elevated liver transaminases (% of subjects) [2, 7]: (11%); Grade 3 or 4 Drug-Related AEs: Elevated liver transaminases (number of subjects) [2, 7]: 1; Grade 3 or 4 Drug-Related AEs: Headache (number of subjects) [2, 7]: 0; Grade 3 or 4 Drug-Related AEs: Nausea (number of subjects) [2, 7]: 0; Grade 3 or 4 Drug-Related AEs: Pain, phlebitis at infusion site (number of subjects) [2, 7]: 0; Adverse events ([2]; IV 10 mg and 25 mg): No drug related adverse events; Safety and tolerability ([2]; IV 10 mg and 25 mg): generally safe and well-tolerated; Bilirubin ([2]; any cohort): No Grade 2 or higher bilirubin; ALT elevations ([2]; cohort 4): transient grade 2-3 ALT elevations; Serious adverse events ([2]; human, in vivo): no serious adverse events occurred; Tolerability ([2]; single doses 10-50 mg, 2h IV infusion): well tolerated; ALT elevations ([2]; therapeutic IV exposures (cohorts 1 and 2)): no grade 2 or higher ALT elevations were observed; Appearance [3, 8]: Clear, colorless; Measured pH [3, 8]: 8.2; Observed c(BCV) [3, 8]: 0.51 mg/mL; Appearance [3, 9]: Clear, colorless; Measured pH [3, 9]: 8.3; Observed c(BCV) [3, 9]: 0.51 mg/mL; Appearance [3, 10]: Clear, colorless; Measured pH [3, 10]: 8.2; Observed c(BCV) [3, 10]: 0.51 mg/mL; Appearance [3, 11]: Clear, colorless; Measured pH [3, 11]: 8.2; Observed c(BCV) [3, 11]: 0.49 mg/mL; Appearance [3, 12]: Clear, colorless; Measured pH [3, 12]: 8.2; Observed c(BCV) [3, 12]: 1.0 mg/mL; Appearance [3, 13]: Clear, colorless; Measured pH [3, 13]: 8.2; Observed c(BCV) [3, 13]: 1.0 mg/mL; Appearance [3, 14]: Clear, colorless; Measured pH [3, 14]: 8.2; Observed c(BCV) [3, 14]: 1.0 mg/mL; Appearance [3, 15]: Clear, colorless; Measured pH [3, 15]: 8.2; Observed c(BCV) [3, 15]: 1.0 mg/mL
